This is an account of results in US9381186B2, “Substituted chroman derivatives, medicaments and use in therapy” (MEI Pharma, Inc., priority 2004, dated 2016).

In data set [1] the test system is NFF (neonatal foreskin fibroblasts). Description: Cytotoxicity (MTT proliferation assay) against neonatal foreskin fibroblasts. In kind it is cell-based, Human. The protocol: (§1) The normal cell line NFF (neonatal foreskin fibroblasts) was a gift from Dr. Peter Parsons (Queensland Institute of Medical Research). RK (rabbit kidney) cells were obtained from Miller Whalley (Macquarie University). Both cell lines were cultured in RPMI supplemented with 10% FCS (CSL, Australia), penicillin (100 U/ml), streptomycin ([…]), L-glutamine (2 mM) and sodium bicarbonate (1.2 g/L), and cultured at 37° C. in a humidified atmosphere of 5% CO2
(§2) IC50 values were determined for each cell line. Cells were seeded in 96-well plates at an appropriate cell density as determined from growth kinetics analysis and cultured for 5 days in the absence and presence of the test compounds. Cell proliferation was assessed after the addition of 20 μl of 3-4,5 dimethylthiazol-2,5-diphenyl tetrazolium bromide (MTT, 2.5 mg/ml in PBS, Sigma) for 3-4 hrs at 37° C. according to manufacturer's instructions. IC50 values were calculated from semi-log plots of % of control proliferation on the y-axis against log dose on the x-axis.

Data set [2] has as its system CP70. Description: MTT proliferation assay, ovarian CP70. In kind it is cell-based.
Data set [3] relates to PC3. The data set can be described thus: MTT proliferation assay, prostate PC3. The class given is cell-based. To be noted: Homo sapiens, PC-3. The protocol: (§3) An cultures were supplemented with 10% FCS (CSL, Australia), penicillin (100 U/ml), streptomycin ([…]), L-glutamine (2 mM) and sodium bicarbonate (1.2 g/L), and cultured at 37° C. in a humidified atmosphere of 5% CO2. All cell lines were purchased from ATCC (Maryland, USA) except where noted.
as §2

Data set [4] has as its system HTB-138. Description: MTT proliferation assay, glioma HTB-138. In kind it is cell-based. How it is done:
as §3, §2

Data set [5] deals with HPAC. The data set can be described thus: MTT proliferation assay, pancreatic HPAC. In kind it is cell-based. To be noted: Homo sapiens, Table 2.2.
Data set [6] has as its system CCRF-CEM. The data set can be described thus: MTT proliferation assay, leukaemia (ALL) CCRF-CEM. The class given is cell-based. To be noted: Homo sapiens, Table 2.2. The protocol:
as §3, §2

Data set [7] has as its system NCI-H460. Description: MTT proliferation assay, NSC lung NCI-H460. The settings on record: Homo sapiens; NSC Lung NCI-H460, Table 2.2. In kind it is cell-based. The protocol:
as §3, §2

The test system of data set [8] is murine macrophages (RAW 264.7) stimulated with LPS. The data set can be described thus: Eicosanoid synthesis in LPS-stimulated RAW 264.7 macrophages. To be noted: test compound 10 μM, LPS 50 ng/ml, 16 hrs; negative = inhibition. The class given is cell-based, mouse. The protocol: The mouse macrophage cell line RAW 264.7 was cultured in DMEM supplemented with foetal calf serum (FCS), 2 mM glutamine and 50 U/ml penicillin/streptomycin. Subconfluent cells were detached from the flask by gentle scraping and 24-well plates seeded at 5×10^5 cells per well and allowed to adhere for 1 hr. Cells were then treated either test compound at a concentration of 10 μM (in 0.025% DMSO) or vehicle alone, and incubated for 1 hr. LPS 50 ng/ml (LPS—Sigma-Aldrich) was then added. After incubation for 16 hrs, culture media was collected and stored at −80° C. for ecosanoid measurements using enzyme immunometric assays (PGE2 and TXB2—Cayman Chemical).

Data set [9] relates to MM200. Description: MTT proliferation assay, melanoma MM200. The class given is cell-based.
The test system of data set [10] is MDA-MB-468. Description: MTT proliferation assay, breast MDA-MB-468. The class given is cell-based. The settings on record: Homo sapiens.
Data set [11] has as its system HT-29. Description: MTT proliferation assay, colorectal HT-29. The settings on record: Homo sapiens; Colorectal HT-29, Table 2.2; read-out: IC50. In kind it is cell-based. How it is done: as §3, §2
Data set [12] deals with RK (rabbit kidney) cells. The data set can be described thus: Cytotoxicity (MTT proliferation assay) against rabbit kidney cells. In kind it is cell-based. To be noted: Oryctolagus cuniculus; rabbit kidney cells. The protocol: as §1, §2
For data set [13], the system named is NCI-H23. Description: MTT proliferation assay, lung NCI-H23. In kind it is cell-based. To be noted: Homo sapiens; Lung NCI-H23, Table 2.1; read-out: cytoxicity (IC50). How it is done:
as §3, §2

Data set [14] in a line: Oral pharmacokinetics in female BALB/c mice. In kind it is in vivo, mouse. To be noted: female, BALB/c, mouse, serum, 50 mg/kg; oral; read-out: t1/2. How it is done: Compound No. 1 labelled above was prepared as homogenous suspensions in 1% CMC (m:v, water). The formulation was delivered orally by gavage to female BALB/c mice at a dosage of 50 mg/kg. Three animals were allocated to each timepoint (15 min, 30 min, 1 hr, 4 hr and 24 hr). At each respective timepoint, animals were euthanised by cervical dislocation and blood collected. The concentration of free compound was analysed by mass spectroscopy.

Where [15] appears, read: Ovarian CP70, Table 2.2, read-out: IC50.
Setting [16] is: Prostate PC3, Table 2.2, read-out: IC50.
Where [17] appears, read: Glioma HTB-138, Table 2.2, read-out: IC50.
Where [18] appears, read: Melanoma MM200, Table 2.2, read-out: IC50.
Setting [19] is: Breast MDA-MB-468, Table 2.2, read-out: IC50.

Read-outs that look alike come from different tables or passages of the source.

Turning to `N.N.[Cl][Pt][Cl]` [Cisplatin, reference compound], the half-inhibitory concentration (IC50) in [1] (non-transformed neonatal foreskin fibroblasts, read-out: IC50) was 9 µM; in [1] (text says rabbit kidney cells, values are those of the NFF line of Table 1, read-out: degree of toxicity (IC50)), 9.9 µM.

With `Cc1ccc(C2(O)c3ccc(O)cc3OCC2c2ccc(O)cc2)cc1` (stereo not shown) [Compound 10], the 50% inhibitory concentration (IC50) in data set [2] (setting [15]) came to 27.5 µM; in data set [3] (setting [16]), 37.5 ± 0.4 µM; in data set [4] (setting [17]), 60.2 µM; in [5], 50 µM; in data set [6] it was 40.7 µM; in data set [7] it was 39.7 µM. The “Percentage change in PGE2 synthesis compared with vehicle” value (from here on “Percentage change in PGE2 synthesis”) in data set [8] was −23.1%. Besides, in data set [8], the “Percentage change in TXB2 synthesis compared with vehicle” value (shortened to “Percentage change in TXB2 synthesis”) was −7.1%.

As to `COc1ccc(C2(O)c3ccc(O)cc3OCC2c2ccc(O)cc2)cc1` (stereo not shown) [Compound 11], the IC50 in [2] (setting [15]) was 52.7 ± 13 µM; in [3] (setting [16]), greater than 100 µM; in [4] (setting [17]), 86.3 µM; in data set [5], greater than 100 µM; in data set [9] (setting [18]), 60.4 ± 9.2 µM; in data set [6] it was 95.4 µM. Besides, the IC50 in data set [7] was greater than 100 µM. Further, the “Percentage change in PGE2 synthesis” value in data set [8] is −51.0%. The “Percentage change in TXB2 synthesis” value in [8] is −53.2%.

For the compound `COc1ccc(C2COc3cc(OC)ccc3C2(O)c2ccc(OC)cc2)cc1` (stereo not shown) [Compound 12], the IC50 in data set [2] (setting [15]) was greater than 100 µM; in data set [3] (setting [16]), 32.8 ± 4.7 µM; in data set [10] (setting [19]), 63.5 ± 4.6 µM; in [4] (setting [17]), 47.7 µM; in [5], 86.3 ± 67 µM; in data set [11], 49.5 ± 32 µM. Further, the concentration for half-maximal inhibition (IC50) in data set [9] (setting [18]) and in data set [6] was greater than 100 µM throughout. For the same compound, in [8], the “Percentage change in PGE2 synthesis” value is listed as −68.3%. Moreover, the “Percentage change in TXB2 synthesis” value in data set [8] is reported as −34.0%.

In the case of `Oc1ccc(C2COc3cc(O)ccc3C2(O)c2ccccc2)cc1` (stereo not shown) [Compound 14], the half-inhibitory concentration (IC50) is 61.3 µM in data set [2] (setting [15]); 74 ± 4 µM in data set [3] (setting [16]); greater than 100 µM in data set [10] (setting [19]); greater than 100 µM in data set [4] (setting [17]); greater than 100 µM in [5]; 72.8 µM in [9] (setting [18]). The IC50 is 90.2 µM in data set [6] and greater than 100 µM in [7]. The “Percentage change in PGE2 synthesis” value in data set [8] is recorded as −23.6%. In data set [8], the “Percentage change in TXB2 synthesis” value is −40.9%.

Regarding `COc1cccc(C2(O)c3ccc(O)cc3OCC2c2ccc(O)cc2)c1` (stereo not shown) [Compound 15], the concentration for half-maximal inhibition (IC50) in data set [2] (setting [15]) is 65 ± 1.9 µM; in [3] (setting [16]) it was greater than 100 µM; in data set [4] (setting [17]), greater than 100 µM; in data set [5], greater than 100 µM; in data set [6], 81.8 µM; in data set [7] it was greater than 100 µM. For the same compound, in data set [8], the “Percentage change in PGE2 synthesis” value is reported as −38.3%. Further, the “Percentage change in TXB2 synthesis” value in data set [8] is −58.4%.

With `COc1ccc(C2=C(c3ccc(O)cc3)COc3cc(O)ccc32)cc1` [Compound 27], the concentration for half-maximal inhibition (IC50) was determined as 22.4 ± 0.7 µM in data set [2] (setting [15]); 28 ± 7.3 µM in data set [3] (setting [16]); 33.7 µM in [4] (setting [17]); 27.6 ± 5.3 µM in [5]; 14.6 µM in data set [9] (setting [18]); 16.6 µM in [6]. Also, the midpoint of inhibition in data set [7], the IC50, lay at 31.6 ± 4.9 µM. For the same compound, the “Percentage change in PGE2 synthesis” value in data set [8] is recorded as −84.2%. Also, the “Percentage change in TXB2 synthesis” value in data set [8] is given as −86.1%.

For the compound `COc1ccc(C2=C(c3ccc(OC)cc3)c3ccc(OC)cc3OC2)cc1` [Compound 28], the half-maximal inhibitory concentration (IC50) was 62 ± 44 µM in data set [2] (setting [15]); 49 ± 16 µM in data set [3] (setting [16]); 30.5 ± 4 µM in [10] (setting [19]); 62.4 µM in data set [4] (setting [17]); 50.7 ± 35 µM in data set [5]; 29.4 ± 4.4 µM in [11]. For the same compound, the IC50 was 64 ± 74 µM in data set [9] (setting [18]), greater than 100 µM in data set [6] and 41.6 µM in [7]. Further, in data set [8], the “Percentage change in PGE2 synthesis” value is listed as −85.1%. Moreover, the “Percentage change in TXB2 synthesis” value in data set [8] is reported as −50.1%.

As for `Oc1ccc(C2=C(c3ccccc3)c3ccc(O)cc3OC2)cc1` [Compound 30], the IC50 in data set [2] (setting [15]) was 18 µM; in data set [3] (setting [16]), 45 ± 4.9 µM; in data set [10] (setting [19]) it was greater than 100 µM; in data set [4] (setting [17]), 45.7 µM; in data set [5], 41 ± 5.3 µM; in data set [9] (setting [18]), 33 ± 3 µM. The figures for the IC50 in data set [6] and in data set [7] were 66.6 µM and 43.5 ± 9.2 µM, respectively. For the same compound, the “Percentage change in PGE2 synthesis” value in data set [8] is listed as −60.7%. In data set [8], the “Percentage change in TXB2 synthesis” value is reported as −62.6%.

As to `COc1cccc(C2=C(c3ccc(O)cc3)COc3cc(O)ccc32)c1` [Compound 31], the IC50 in data set [2] (setting [15]) was 53.4 µM; in data set [3] (setting [16]) it was 47 ± 8.4 µM; in data set [4] (setting [17]), 94.6 µM; in data set [5], 34.6 µM; in data set [11], greater than 100 µM; in data set [9] (setting [18]), 27.2 ± 4.6 µM. Besides, the half-maximal inhibitory concentration (IC50) in data set [6] turned out to be 51.5 ± 12 µM; in data set [7] it was 76.3 µM. The “Percentage change in PGE2 synthesis” value in [8] is −41.4%. The “Percentage change in TXB2 synthesis” value in data set [8] is −48.3%.

As for `COc1ccc(C2=C(c3ccc(O)cc3)COc3c2ccc(O)c3C)cc1` [Compound 32], the half-inhibitory concentration (IC50) in [2] (setting [15]) is 17.7 ± 5.9 µM; in [3] (setting [16]) it was 13 ± 0.6 µM; in [10] (setting [19]), 9.2 ± 5.1 µM; in data set [4] (setting [17]), 29 ± 2 µM; in data set [5], 35.8 µM; in data set [11] it was 24.8 ± 3.9 µM. Further, the IC50 in data set [9] (setting [18]) is 12.6 ± 3.7 µM; in data set [6] it was 15.4 µM; in [7] it was 39.3 ± 7.7 µM. Also, in [8], the “Percentage change in PGE2 synthesis” value was −71.1%. For the same compound, the “Percentage change in TXB2 synthesis” value in data set [8] is reported as −34.4%.

With `Oc1ccc(C2=Cc3ccc(O)cc3OC2)cc1` [Phenoxodiol, reference compound], the IC50 in [12] is greater than 150 µM; in data set [2] (read-out: cytoxicity (IC50)), 11.1 ± 23.6 µM; in data set [3] (Prostate PC3, Table 2.1, read-out: cytoxicity (IC50)), 9.1 ± 8 µM; in [10] (MDA-MB-468, read-out: cytoxicity (IC50)), 8.9 ± 4.8 µM; in [4] (Glioma HTB-138, Table 2.1, read-out: cytoxicity (IC50)), 20.4 ± 17.5 µM; in [13], 8.3 ± 6.7 µM. Also, the IC50 in data set [9] (read-out: cytoxicity (IC50)) stood at 6.2 ± 4.5 µM. For the same compound, the half-life in data set [14] is roughly 30 min.
